Entries after “also recorded” stand apart in the source; their conditions may differ. Like-named read-outs stand apart in the source and are kept apart here. Blank lines part the entries; values can stand above or below the compound they belong to.
Legend:
[1] = molecular target: T1, purified human αvβ3 (Homo sapiens, UniProt P05106+P06756); experiment: ELISA: competitive inhibition of biotinylated vitronectin binding to immobilized purified integrin αvβ3; details: for higher binding affinity as compared to monomer 1 (IA): compared to IA 1
T1 construct: purchased Chemicon International, Temecula, Calif., USA
Method: In vitro Binding Assay. […] Purified integrin αvβ3 protein (Chemicon International, Temecula, Calif., USA) was applied to 96-well polystyrene microtiter plates at 0.1 μg/well. After overnight incubation at 4° C., the plates were washed, and then blocked with milk solution (KPL, Inc. Gaithersburg, Md., USA) at room temperature for 2 hr. The blocking buffer was removed, and the plates were inoculated in quadruplicate with bivalent IAs with a typical starting concentration of 125 nM. Serial dilutions were prepared in the 96-well plates using multichannel pipettes. Biotinylated vitronectin solution (0.1 μg/well) was added to each well as a standard competitor. The plates were incubated at room temperature for 3 h, washed, and the bound vitronectin was detected using NeutrAvidin-HRP conjugate at 0.01 μg/well (Pierce, Rockford, Ill., USA) and LumiGlo® chemiluminescent substrate system (KPL, Inc.). The luminescence was read using a FLUOstar™ OPTIMA Microplate Reader (Durham, N.C., USA). […] (Peptides International, Inc., Louisville, Ky., USA) was also tested using the same method as described above.
Briefly, purified integrin αvβ3 protein (Chemicon International, Temecula, Calif., USA) was applied to 96-well polystyrene microtiter plates for overnight incubation at 4° C. The plates were washed and then blocked with milk solution (KPL, Inc., Gaithersburg, Md., USA) and the plates were inoculated in quadruplicate with multivalent IAs at different concentrations. Biotinylated vitronectin solution was added to each well as a standard competitor. The plates were incubated at room temperature, washed, and the bound vitronectin detected using NeutrAvidin-HRP® conjugate (Pierce, Rockford, Ill., USA) and LumiGlo® chemiluminescent substrate system (KPL, Inc., Gaithersburg, Md., USA). The luminescence was read using a FLUOstar® OPTIMA Microplate Reader (Durham, N.C., USA).
In vitro Binding Affinity Assay. Purified integrin αvβ3 protein (Chemicon International, Temecula, Calif., USA) was applied to 96-well polystyrene microtiter plates at 1 μg/well. After overnight incubation at 4° C., the plates were washed and then blocked with milk solution (KPL, Inc., Gaithersburg, Md., USA) at room temperature for 2 hr. The blocking buffer was removed, and the plates were inoculated in quadruplicate with bivalent IAs with a typical starting concentration of 125 nM. Serial dilutions were prepared in the 96-well plates using multichannel pipettes. Biotinylated vitronectin solution (0.1 μg/well) was added to each well as a standard competitor.
The plates were incubated at room temperature for 3 hr, washed, and the bound vitronectin was detected using NeutrAvidin-HRP conjugate at 0.01 μg/well (Pierce, Rockford, Ill., USA) and LumiGlo® chemiluminescent substrate system (KPL, Inc.). The luminescence was read using a FLUOstar OPTIMA Microplate Reader (Durham, N.C., USA). […] It measured competitive binding of the integrin antagonist and biotinylated human vitronectin for the immobilized receptor αvβ3.

[2] = test system: U-87 xenograft tumors; experiment: In vivo and ex vivo NIR fluorescence imaging of U-87 xenograft tumor-bearing mice
Method: U-87 MG Xenograft Model, Animal procedures were performed according to approved protocols. Female athymic nude mice (nu/nu), obtained from Charles River Laboratories, Inc. (Cambridge, Mass., USA) at 4-6 weeks of age, were injected subcutaneously in the right rear thigh with 1×10^7 U-87 MG cells suspended in 100 μL of phosphate-buffered saline (PBS). The cancer cells were harvested from sub-confluent cultures with 0.25% trypsin. Trypsinization was stopped with DMEM containing 10% FBS, after which the cells were washed once in serum-free medium and resuspended in PBS. Trypan blue exclusion was performed to ensure >90% cell viability. The tumor bearing mice were subjected to in vivo imaging studies when the tumors reached 0.4-0.6 cm in diameter.
In vivo Fluorescence Imaging of Tumors. ˜3×10^6 U-87 cells were implanted bilaterally in the posterior flanks of immunocompromised (nu/nu) mice and grown to ˜4 to 6 mm in diameter. Imaging was carried out in groups of five mice. After palpable masses were detected, animals were manually restrained and imaging probes were intravenously administered (lateral tail vein) using a 30-Ga needle via aseptic technique. Free Cy5.5 was prepared by dissolving the same Cy5.5NHS ester used for labeling the bivalent IA (GE Healthcare, Piscatway, N.J., USA) in phosphate buffered saline (PBS), pH 7.4 overnight at 4° C. Stock concentration of free Cy5.5 was measured optically using the molar extinction coefficient of 250000M-1 cm-1 using a UV-visible spectrophotometer at the maximum absorbance wavelength (675 nm) as recommended by the manufacturer. The bivalent-IA-Cy5.5 was weighed and confirmed by spectrophotometric measurement. Appropriate dilutions of each probe were made in PBS, pH 7.4, and each was filter sterilized (0.2-μm) immediately prior to use. All animals weighed between 18 and 20 g, and each received 10 nmol of imaging probe (in a total volume of 100 μL). Fluorescence imaging was performed with a small animal-dedicated optical imaging system (Xenogen/Caliper IVIS-200, Mountain View, Calif., USA) under continuous 1.5-2.0% isoflurane delivered through the integrated anesthesia nosecone system. At 2-, 4-, 7-, 24-, and 48-hrs' post-injection, images were acquired with the surface of the tissue of interest (tumor) approximating a perpendicular viewing angle relative to the camera line of sight; this viewing angle was also used for normal tissue selection.
For determining tumor contrast, mean fluorescence intensities of the tumor area (T) defined as radiance (photons/sec/cm2/sr) at the right rear leg of the animal and of the area (N) at the right flank (normal tissue) were calculated by region-of-interest (ROI) analysis using the corresponding photograph of each image acquisition dataset to identify the tumor region. Pre-injection imaging was also performed to determine baseline autofluorescence. For competitive inhibition studies, mice (n=3) were co-injected with 500 nmol bivalent IA and 10 nmol of imaging probe (bivalent-IA-Cy5.5) following the same procedure described above. Free Cy5.5 studies were performed in the same manner following the intravenous injection of 10 nmol. For ex vivo biodistribution imaging, two tumor-bearing mice were imaged 24 hrs post injection of bivalent-IA-Cy5.5 and thereafter euthanized per IACUC protocol (CO2 and cervical dislocation). Tumor and major internal organs (heart, lung, liver, spleen, gastrointestinal tract, and kidneys) were harvested, weighed, and imaged against a black paper background. All image acquisition parameters were as follows: epi-illumination; Cy5.5 Em/Ex; Bin: (HR)4, FOV: 12.9; f2; 0.2 sec.

[3] = test system: U-87 MG (ATCC HTB-14) glioblastoma cells over-expressing integrin αvβ3; experiment: Fluorescence microscopy probe binding assay in U-87 cells; format: cell-based, human; details: 200 nM, 37° C., 45 min, confocal microscopy
Method: Fluorescence Microscopy Studies. […] For fluorescence microscopy studies, 1×10^4 U-87 cells were cultured on 35 mm MatTek glass bottom culture dishes. After 24 hr, cells were washed with PBS and then incubated with bivalent-IA-Cy5.5 (200 nM) at 37° C. for 45 min. Integrin specificity of the probe binding was verified by incubating U-87 cells with and without a blocking dose of the non-fluorescent bivalent IA (20 μmol/L). After the incubation period, the cells were washed three times with ice-cold PBS. The fluorescence signal of the cells was recorded using FluoView® 1000 Laser Scanning Confocal Microscope (Olympus, Center Valley, Pa., USA) under a 40× oil-immersion objective, with laser excitation at 675 nm (Cy5.5). A differential interference contrast image was also recorded so that the origin of fluorescent signals could be confirmed.

[4] = Example 2, PEG-linked ligands, averages of at least three determinations, read-out: In vitro EL1SA IC50

IC50 [1, 4]: 0.09 nM
higher affinity as compared to the corresponding monomer 2 ([1]; compared to IAC 2): ~23 fold
Structure (SMILES): CC(C)(CNC(=O)OCCOCCOCCOC(=O)NCC(C)(C)COC(=O)NCCS(=O)(=O)N[C@@H](CNC(=O)c1ccc(OCCNC2=NCCCN2)cc1)C(=O)O)COC(=O)NCCS(=O)(=O)N[C@@H](CNC(=O)c1ccc(OCCNC2=NCCCN2)cc1)C(=O)O [Compound 6]

IC50 [1, 4]: 0.16 nM
Structure (SMILES): O=C(NCCS(=O)(=O)N[C@@H](CNC(=O)c1ccc(OCCNC2=NCCCN2)cc1)C(=O)O)OCCOCCOCCOCCOCCOCCOCCOCCOC(=O)NCCS(=O)(=O)N[C@@H](CNC(=O)c1ccc(OCCNC2=NCCCN2)cc1)C(=O)O [Compound 5]

IC50 [1, 4]: 2.07 nM
higher binding affinity as compared to monomer 1 (IA) [1]: about 10 fold
higher binding affinity as compared to monomer 1 (IA) ([1]; listed as 2): 10 fold
Structure (SMILES): CC(C)(CN)COC(=O)NCCS(=O)(=O)N[C@@H](CNC(=O)c1ccc(OCCNC2=NCCCN2)cc1)C(=O)O [IAC 2]

IC50 [1, 4]: 0.11 nM
Structure (SMILES): CC(C)(CNC(=O)OCCOCCOCCOCCOC(=O)NCC(C)(C)COC(=O)NCCS(=O)(=O)N[C@@H](CNC(=O)c1ccc(OCCNC2=NCCCN2)cc1)C(=O)O)COC(=O)NCCS(=O)(=O)N[C@@H](CNC(=O)c1ccc(OCCNC2=NCCCN2)cc1)C(=O)O [Compound 7]

IC50 [1, 4]: 0.16 nM
Structure (SMILES): O=C(NCCS(=O)(=O)N[C@@H](CNC(=O)c1ccc(OCCNC2=NCCCN2)cc1)C(=O)O)OCCOCCOCCOCCOC(=O)NCCS(=O)(=O)N[C@@H](CNC(=O)c1ccc(OCCNC2=NCCCN2)cc1)C(=O)O [Compound 4]

Structure (SMILES): CCN1\C(=C/C=C/C=C/C2=[N+](CCCCCC(=O)O)c3ccc4c(S(=O)(=O)O)cc(S(=O)(=O)O)cc4c3C2(C)C)C(C)(C)c2c1ccc1c(S(=O)(=O)[O-])cc(S(=O)(=O)O)cc21 [free Cy5.5, reference compound]
tumor fluorescence signal / accumulation ([2]; 10 nmol i.v.): slightly higher than the background but is lower than that achieved with the bivalent-IA-Cy5.5

IC50 [1, 4]: 0.16 nM
Structure (SMILES): O=C(NCCS(=O)(=O)N[C@@H](CNC(=O)c1ccc(OCCNC2=NCCCN2)cc1)C(=O)O)OCCOCCOCCOC(=O)NCCS(=O)(=O)N[C@@H](CNC(=O)c1ccc(OCCNC2=NCCCN2)cc1)C(=O)O [Compound 3]

IC50 [1, 4]: 0.32 nM
Structure (SMILES): CC(C)(CNC(=O)OCCOCCOCCOCCOCCOCCOCCOCCOC(=O)NCC(C)(C)COC(=O)NCCS(=O)(=O)NC(CNC(=O)c1ccc(OCCNC2=NCCCN2)cc1)C(=O)O)COC(=O)NCCS(=O)(=O)NC(CNC(=O)c1ccc(OCCNC2=NCCCN2)cc1)C(=O)O (stereo not drawn) [Compound 8]

Structure (SMILES): CC[N+]1=C(/C=C/C=C/C=C2/N(CCCCCC(=O)NC(CCCCCC(=O)NCCS(=O)(=O)N[C@@H](CNC(=O)c3ccc(OCCNC4=NCCCN4)cc3)C(=O)O)C(=O)NCCS(=O)(=O)N[C@@H](CNC(=O)c3ccc(OCCNC4=NCCCN4)cc3)C(=O)O)c3ccc4c(S(=O)(=O)O)cc(S(=O)(=O)O)cc4c3C2(C)C)C(C)(C)c2c1ccc1c(S(=O)(=O)[O-])cc(S(=O)(=O)O)cc21 (stereo partly drawn) [bivalent-IA-Cy5.5]
tumor fluorescence signal / accumulation ([2]; 10 nmol i.v.): increased signal in tumor sites at 7, 24, and 48 hrs; also recorded: modest accumulation at the tumor site
tumor-to-normal tissue (T/N) fluorescence ratio, average maximum ([2]; 10 nmol i.v., plateau at 24 hr, n=5): ~1.84
ex vivo signal per mass of tissue (biodistribution) ([2]; 24 hrs post-injection, two animals): The highest signal per mass of tissue was observed for the tumor
blood-pool / circulation clearance rate ([2]; inferred from fluorescence): relatively slow blood-pool clearance rate; also recorded: relatively slow clearance of the probe from the circulation
route of clearance ([2]; inferred from kidney fluorescence signal, 24 hrs): mainly renal clearance
hepatic metabolism ([2]; inferred from minimal liver signal, 24 hrs): low hepatic metabolism
endocytosis / binding of probe in U-87 cells [3]: endocytosis of the imaging probes; also recorded: integrin-mediated endocytosis
endocytosis / binding of probe in U-87 cells ([3]; listed as Bivalent-IA-Cy5.5 conjugate): Receptor-mediated endocytosis was observed
endocytosis / binding of probe in U-87 cells ([3]; listed as bivalent-IA-Cy5.5 conjugate): integrin-mediated endocytosis
IC50 ([1]; Example 1 bivalent IA study, FIG. 4, read-out: IC50 of vitronectin binding to αvβ3 (ELISA)): 0.13 ± 0.02 nM

Reference: US9833520B2, “Labeled, non-peptidic, multivalent integrin antagonist compounds; methods for synthesis and uses thereof” (The Methodist Hospital Research Institute, priority 2011, dated 2017)
